In patent publication US20240398824A1, “Inhibition Of Rip Kinases For Treating Neurodegenerative Disorders” (The Johns Hopkins University, priority 2018, published 2024):

Tested on: BV-2 microglia
Test: Real-time PCR of C1q, IL-6 and TNFα in AβO-activated BV-2 microglia
Format: cell-based
Design: key to mRNA levels of C1q / mRNA levels of IL-6 / mRNA levels of TNFα: relative expression normalized to GAPDH by 2^-ΔΔCt; PBS = 1
Conditions: for mRNA levels of IL-6 / mRNA levels of C1q / mRNA levels of TNFα: BV-2 microglia preincubated 1 h with inhibitor 1 μM, then AβO 5 μM 4 h, ±SD; for mRNA levels of IL-6: PBS = 1 ± 0.08, Abeta alone 12.53 ± 0.59; for mRNA levels of C1q: PBS = 1 ± 0.13, Abeta alone 3.7 ± 0.06; for mRNA levels of TNFα: PBS = 1 ± 0.16, Abeta alone 16.19 ± 3.21; for microglial activation / release of multiple inflammatory mediators including C1q, IL-6 and TNFα: inhibitor 1 μM pretreatment, AβO 5 μM, in words
Description: Synthetic Abeta1-42 oligomers were generated as previously described (PMID: 27834631). Hydroxyfluroisopropanol (HFIP)-treated synthethic Abeta1-42 peptides (rPeptide, Bogart, GA, USA) were dissolved in dimethylsulfoxide (DMSO) and further diluted in phosphate-buffered saline (PBS) to obtain a 250 μM stock solution. The stock solution was incubated at 4° C. for at least 24 hours and stored at −80° C. until use. Before use, the solution was centrifuged at 12,000 g for 10 minutes and the supernatant was used as an oligomeric Aβ.
BV-2 microglial cells were cultured in DMEM media. 10^6 of BV-2 microglia in 6 well plate were treated with 2.5 μM of Abeta for 4 hrs. Total RNA from cultured cells was extracted with a RNA isolation kit (Qiagen, Valencia, CA, USA) following manufacturer's instructions. RNA concentration was measured spectrophotometrically using a NanoDrop 2000 (Thermo scientific). Subsequently, 2 μg of total RNA was reverse transcribed to cDNA using the High-Capacity cDNA Reverse Transcription System (Life Technologies, Grand Island, NY, USA). Comparative qPCR was performed using fast SYBR Green Master Mix (Life Technologies) and steponeplus real-time pcr system (Applied Biosystems, Foster City, CA, USA). The expression levels of target genes were normalized to the expression of GAPDH and calculated based on the comparative cycle threshold Ct method^−ΔΔ(2) Ct. (n=3)
To examine the effect of RIPK2 inhibition, 10^6 of BV-2 microglia in 6 well plate were preincubated with DMSO, GSK583 (1 μM, Medchemexpress), OD361 (1 μM, Calbiochem), or Sorafenib (1 μM) for one hour. For mRNA analysis, 5 μM of AβO was treated additional for 4 hours.

Structure (SMILES)	mRNA levels of IL-6	mRNA levels of C1q	mRNA levels of TNFα	microglial activation	release of multiple inflammatory mediators including C1q, IL-6 and TNFα
Clc1cc2cc(c1)-c1cnn3c1NC(=NCCOCCO2)C=C3 [OD36, 6-Chloro-10,11,14,17-tetrahydro-13H-1,16-etheno-4,8-metheno-1H-pyrazolo[3,4-g][1,14,4,6]dioxadiazacyclohexadecine]	7.64 ± 0.48	0.85 ± 0.12	5.85 ± 0.03	blocked microglial activation	significantly reduced
CNC(=O)c1cc(Oc2ccc(NC(=O)Nc3ccc(Cl)c(C(F)(F)F)c3)cc2)ccn1 [Sorafenib]	7.13 ± 0.71	3.3 ± 0.09	9.69 ± 0.47	blocked microglial activation	significantly reduced
